According to ChEMBL document CHEMBL1201862, “PubChem BioAssay data set” (2004):
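In this assay, cells in 96-well plates receive the compound at five concentrations for 48 hours. Endpoints are linearly interpolated between the surrounding concentrations. GI50 is the concentration that inhibits growth by half.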 Calls of active or inactive are those of the source. Cut-off read from the data, not from the text of the source: active = GI50 up to about 1.1 µM and inactive = higher.

How the values were obtained:
Assay in all cases: NCI anticancer screen, dose series, 48 h
A498 = tested on: A498
COLO 205 = tested on: COLO 205
DU-145 = tested on: DU-145
HCC 2998 = tested on: HCC 2998
HCT-116 = tested on: HCT-116
HCT-15 = tested on: HCT-15
HL-60 = tested on: HL-60
HOP-92 = tested on: HOP-92
HT-29 = tested on: HT-29
IGROV-1 = tested on: IGROV-1
MCF7 = tested on: MCF7
MDA-MB-231 = tested on: MDA-MB-231
NCI-H460 = tested on: NCI-H460
NCI-H522 = tested on: NCI-H522
OVCAR-4 = tested on: OVCAR-4
OVCAR-8 = tested on: OVCAR-8
SF-539 = tested on: SF-539
SR = tested on: SR
SW-620 = tested on: SW-620
UO-31 = tested on: UO-31

Structure (SMILES) | GI50 (A498) | GI50 (COLO 205) | GI50 (DU-145) | GI50 (HCC 2998) | GI50 (HCT-116) | GI50 (HCT-15) [µM] | GI50 (HL-60) | GI50 (HOP-92) | GI50 (HT-29) | GI50 (IGROV-1) | GI50 (MCF7) | GI50 (MDA-MB-231) | GI50 (NCI-H460) | GI50 (NCI-H522) | GI50 (OVCAR-4) | GI50 (OVCAR-8) | GI50 (SF-539) | GI50 (SR) | GI50 (SW-620) | GI50 (UO-31)
CC(=O)NC1(c2cc3ccccc3s2)CCCCCC1 | 43.4 µM (inactive) | 22 µM (inactive) | 51.3 µM (inactive) | 61.2 µM (inactive) | 35.3 µM (inactive) | 33.7 | 23.4 µM (inactive) | 59.3 µM (inactive) | 34.3 µM (inactive) | 66.4 µM (inactive) | 37.2 µM (inactive) | 40.4 µM (inactive) | 36.6 µM (inactive) | 20.7 µM (inactive) | 38.5 µM (inactive) | 50.9 µM (inactive) | 51.5 µM (inactive) | 28.4 µM (inactive) | 47.1 µM (inactive) | 37.2 µM (inactive)
COc1cccc(NC(=O)CC(=O)N2N=C(C)C(/N=N/c3ccc(S(=O)(=O)CCOS(=O)(=O)O)cc3)C2=O)c1 (stereo not given) | 10.8 µM (inactive) | 7.1 µM (inactive) | 14.8 µM (inactive) | 15.5 µM (inactive) | 3.22 µM (inactive) | 3.42 | 1.66 µM (inactive) | 2.21 µM (inactive) | 3.76 µM (inactive) | 4.86 µM (inactive) | 2.09 µM (inactive) | 4.63 µM (inactive) | 4.49 µM (inactive) | 0.796 µM (active) | 1.58 µM (inactive) | 3.18 µM (inactive) | 12.5 µM (inactive) | 1.45 µM (inactive) | 2.99 µM (inactive) | 12.1 µM (inactive)
C=CCOC(=O)/C(=C\c1ccc(OC)c(OC)c1)c1ccc(OC)c(OC)c1 | 78.7 µM (inactive) | 27.5 µM (inactive) | > 100 µM (inactive) | > 100 µM (inactive) | 25.2 µM (inactive) | > 100 | 15.5 µM (inactive) | 21.8 µM (inactive) | 28.1 µM (inactive) | > 100 µM (inactive) | 47.2 µM (inactive) | > 100 µM (inactive) | 25.4 µM (inactive) | > 100 µM (inactive) | > 10 µM (inactive) | > 100 µM (inactive) | > 100 µM (inactive) | 22 µM (inactive) | 54.1 µM (inactive) | 20.7 µM (inactive)
C[C@@H]1C(=O)C[C@H]2C(C)(C)CCC[C@]2(C)[C@@]1(O)CCc1ccoc1 | > 100 µM (inactive) | > 100 µM (inactive) | > 100 µM (inactive) | > 100 µM (inactive) | > 100 µM (inactive) | > 100 | 53 µM (inactive) | > 100 µM (inactive) | > 100 µM (inactive) | 57.4 µM (inactive) | > 100 µM (inactive) | > 100 µM (inactive) | > 100 µM (inactive) | 66.4 µM (inactive) | > 100 µM (inactive) | > 100 µM (inactive) | > 100 µM (inactive) | 11.5 µM (inactive) | > 100 µM (inactive) | 55.1 µM (inactive)
NCCCN1CCN(CCCNc2ccc3ncn4c5ccccc5c(=O)c2c34)CC1 | 1.69 µM (inactive) | 0.481 µM (active) | 1.46 µM (inactive) | 0.789 µM (active) | 1.03 µM (active) | 4.4 | 0.861 µM (active) | 1.36 µM (inactive) | 1.13 µM (inactive) | 1.04 µM (active) | 1.32 µM (inactive) | 0.783 µM (active) | 1.31 µM (inactive) | 0.456 µM (active) | 0.728 µM (active) | 1.87 µM (inactive) | 1.42 µM (inactive) | 1.21 µM (inactive) | 1.32 µM (inactive) | 5.28 µM (inactive)
CCOC(=O)c1c(C)n(-c2ccc(Cl)cc2)c2c1cc(O)c1[nH]c3c(c12)CCCC3 | 73.1 µM (inactive) | 48.8 µM (inactive) | > 100 µM (inactive) | 60.7 µM (inactive) | > 100 µM (inactive) | > 100 | 34.6 µM (inactive) | 38.5 µM (inactive) | 30.2 µM (inactive) | 44.4 µM (inactive) | 34.7 µM (inactive) | > 100 µM (inactive) | 47.5 µM (inactive) | 24.3 µM (inactive) | 45.8 µM (inactive) | 55.6 µM (inactive) | 42.5 µM (inactive) | 3.87 µM (inactive) | 47.3 µM (inactive) | > 100 µM (inactive)
CC(C)N(CCCNc1c2ccccc2nc2cccc([N+](=O)[O-])c12)C(C)C | 0.0196 µM (active) | 0.0101 µM (active) | < 0.01 µM (active) | < 0.01 µM (active) | < 0.01 µM (active) | 0.0191 | < 0.018 µM (active) | 0.014 µM (active) | < 0.01 µM (active) | < 0.0385 µM (active) | 0.0114 µM (active) | < 0.01 µM (active) | < 0.01 µM (active) | 0.0104 µM (active) | 0.0246 µM (active) | < 0.0167 µM (active) | < 0.0216 µM (active) | < 0.01 µM (active) | < 0.01 µM (active) | < 0.0224 µM (active)
O=[N+]([O-])c1ccc2c(Nc3ccccc3-c3ccccc3Nc3c4ccccc4nc4cc([N+](=O)[O-])ccc34)c3ccccc3nc2c1 | 9.35 µM (inactive) | 2.74 µM (inactive) | 6.89 µM (inactive) | 3.98 µM (inactive) | 1.65 µM (inactive) | 3.77 | 2.68 µM (inactive) | 3.44 µM (inactive) | 4.14 µM (inactive) | 10.8 µM (inactive) | 4.18 µM (inactive) | 2.31 µM (inactive) | 2.5 µM (inactive) | 3.87 µM (inactive) | 10 µM (inactive) | 3.93 µM (inactive) | 4.59 µM (inactive) | 1.69 µM (inactive) | 1.69 µM (inactive) | 3.26 µM (inactive)
